Reference: patent US20230295200A1 (REGENTS OF THE UNIVERSITY OF MICHIGAN, priority 2022, published 2023)

How the values were obtained:
STAT5A = molecular target: T1, STAT5A (Homo sapiens, UniProt P42229); assay: Fluorescence polarization (FP) binding assay, STAT5A; conditions: FP competition, 5 nM fluorescein-labeled tracer, 200 nM protein, PBS pH7.4
T1 sequence (P42229 1-794): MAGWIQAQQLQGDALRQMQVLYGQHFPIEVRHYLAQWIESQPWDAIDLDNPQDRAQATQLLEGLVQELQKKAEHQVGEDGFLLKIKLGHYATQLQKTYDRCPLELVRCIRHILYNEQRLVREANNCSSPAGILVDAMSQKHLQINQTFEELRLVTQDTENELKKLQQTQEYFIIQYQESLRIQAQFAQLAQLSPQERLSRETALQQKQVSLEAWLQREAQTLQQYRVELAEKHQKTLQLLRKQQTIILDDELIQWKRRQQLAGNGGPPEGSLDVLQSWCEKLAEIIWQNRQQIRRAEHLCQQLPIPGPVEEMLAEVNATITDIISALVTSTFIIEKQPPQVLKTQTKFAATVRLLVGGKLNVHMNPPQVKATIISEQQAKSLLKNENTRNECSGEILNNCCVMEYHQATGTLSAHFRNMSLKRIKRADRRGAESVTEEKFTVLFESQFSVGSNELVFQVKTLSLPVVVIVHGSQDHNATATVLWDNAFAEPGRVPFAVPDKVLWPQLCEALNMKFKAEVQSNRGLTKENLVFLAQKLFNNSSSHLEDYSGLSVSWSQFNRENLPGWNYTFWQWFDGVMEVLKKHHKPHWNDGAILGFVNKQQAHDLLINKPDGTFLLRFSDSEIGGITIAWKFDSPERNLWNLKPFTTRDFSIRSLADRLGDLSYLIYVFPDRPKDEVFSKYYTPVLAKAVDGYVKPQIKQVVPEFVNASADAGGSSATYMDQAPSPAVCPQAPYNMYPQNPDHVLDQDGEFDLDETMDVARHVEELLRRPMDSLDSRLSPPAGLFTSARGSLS
Description: Evaluation of the activity of the inhibitors may be accomplished by fluorescence polarization (FP) experiments. A representative general protocol is the following:
Fluorescence polarization (FP) experiments are performed in black round-bottom plates using the CLARIOstar microplate reader. To each well, fluorescein-labeled tracer and STAT5 or STAT6 protein are added in assay buffer. […] The inhibition constants are determined as the concentration of the STAT5 or STAT6 at which 50% of the ligand is bound.
Fluorescence polarization (FP) experiments were performed in 96-well, black round-bottom plates (Microfluor 2, Fisher Scientific) using the CLARIOstar microplate reader (BMG Labtech). To each well, 5 nM of fluoresceinlabeled tracer and 200 nM of STAT5 and/or STAT6 protein were added to a final volume of 100 μl in the assay buffer (PBS pH7.4+0.01% BGG+0.01% Tween-20, 2 mM DTT). The plate was mixed on a shaker for 15 m and incubated at room temperature for 1 h to reach equilibrium. […] All experimental data were analyzed using Prism 8.0 software (GraphPad Software), and the inhibition constants were determined by nonlinear curve fitting as the concentration of the STAT5 and/or STAT6 at which 50% of the ligand is bound.

STAT6 protein = molecular target: T2, STAT6 protein (Homo sapiens, UniProt P42226); assay: Fluorescence polarization (FP) binding assay, STAT6; conditions: FP competition, 5 nM fluorescein-labeled tracer, 200 nM protein, PBS pH7.4; read-out: Binding STAT6
T2 sequence (P42226 1-847): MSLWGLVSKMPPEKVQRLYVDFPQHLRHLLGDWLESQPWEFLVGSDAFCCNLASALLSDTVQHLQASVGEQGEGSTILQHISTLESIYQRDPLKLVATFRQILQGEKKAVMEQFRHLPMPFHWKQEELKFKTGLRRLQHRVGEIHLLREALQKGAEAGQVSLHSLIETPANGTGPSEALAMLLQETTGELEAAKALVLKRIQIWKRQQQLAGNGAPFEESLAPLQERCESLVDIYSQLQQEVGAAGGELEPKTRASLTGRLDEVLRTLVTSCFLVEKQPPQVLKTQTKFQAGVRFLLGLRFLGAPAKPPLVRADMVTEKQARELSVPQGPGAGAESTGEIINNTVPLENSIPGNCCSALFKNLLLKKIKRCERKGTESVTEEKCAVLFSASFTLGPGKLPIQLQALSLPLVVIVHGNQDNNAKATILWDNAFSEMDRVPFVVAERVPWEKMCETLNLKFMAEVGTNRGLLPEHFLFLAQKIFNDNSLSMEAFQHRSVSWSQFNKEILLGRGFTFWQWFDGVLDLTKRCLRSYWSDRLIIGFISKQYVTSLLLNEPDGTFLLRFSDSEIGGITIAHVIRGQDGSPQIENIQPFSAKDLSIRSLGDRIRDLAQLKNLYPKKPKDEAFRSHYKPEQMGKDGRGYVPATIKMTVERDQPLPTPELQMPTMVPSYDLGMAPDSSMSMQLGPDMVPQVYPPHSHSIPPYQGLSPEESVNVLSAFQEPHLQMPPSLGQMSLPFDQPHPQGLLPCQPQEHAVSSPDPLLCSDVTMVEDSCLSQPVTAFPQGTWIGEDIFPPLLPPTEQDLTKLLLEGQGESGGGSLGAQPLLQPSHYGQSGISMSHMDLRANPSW
Procedure, shortened: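 Polarization read after 1 h equilibration at room temperature (preceded by 15 min shaking) of 200 nM STAT5 and/or STAT6 with 5 nM fluorescein tracer. Buffer: PBS pH 7.4 plus 0.01% BGG, 0.01% Tween-20, 2 mM DTT; inhibition constants derived by nonlinear fitting.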

SMILES	Ki (STAT5A)	Ki (STAT6 protein)
CC(=O)N1CC[C@H]2CC[C@@H](C(=O)NC(c3ccccc3)c3ccccc3)N2C(=O)[C@@H](NC(=O)c2cc3cc(C(F)(F)P(=O)(O)O)ccc3[nH]2)C1 [Compound 3, ((2-(((5S,8S,10aR)-3-acetyl-8-(benzhydrylcarbamoyl)-6-oxodecahydropyrrolo[1,2-a][1,5]diazocin-5-yl)carbamoyl)-1H-indol-5-yl)difluoromethyl)phosphonic acid]	> 10 µM	1 to 10 µM
CC(=O)N1CC[C@H]2CC[C@@H](C(=O)NC(c3ccccc3)c3ccccc3)N2C(=O)[C@@H](NC(=O)/C=C/c2ccc(C(F)(F)P(=O)(O)O)cc2)C1 [Compound 5, ((4-((E)-3-(((5S,8S,10aR)-3-acetyl-8-(benzhydrylcarbamoyl)-6-oxodecahydropyrrolo[1,2-a][1,5]diazocin-5-yl)amino)-3-oxoprop-1-en-1-yl)phenyl)difluoromethyl)phosphonic acid]	> 10 µM	> 10 µM
CC(=O)N1CC[C@H]2CC[C@@H](C(=O)Nc3ccc(I)cc3)N2C(=O)[C@@H](NC(=O)/C=C/c2ccc(C(F)(F)P(=O)(O)O)cc2)C1 [Compound 6, ((4-((E)-3-(((5S,8S,10aR)-3-acetyl-8-((4-iodophenyl)carbamoyl)-6-oxodecahydropyrrolo[1,2-a][1,5]diazocin-5-yl)amino)-3-oxoprop-1-en-1-yl)phenyl)difluoromethyl)phosphonic acid]	> 10 µM	1 to 10 µM
CC(=O)N1CC[C@H]2CC[C@@H](C(=O)N(C)C(c3ccccc3)c3ccccc3)N2C(=O)[C@@H](NC(=O)c2cc3cc(C(F)(F)P(=O)(O)O)ccc3[nH]2)C1 [Compound 7, ((2-(((5S,8S,10aR)-3-acetyl-8-(benzhydryl(methyl)carbamoyl)-6-oxodecahydropyrrolo[1,2-a][1,5]diazocin-5-yl)carbamoyl)-1H-indol-5-yl)difluoromethyl)phosphonic acid]	> 10 µM	1 to 10 µM
NCCCC[C@H](NC(=O)/C=C/c1ccc(C(F)(F)P(=O)(O)O)cc1)C(=O)N1CCC[C@H]1C(=O)N1CCc2ccccc2C1 [Compound 8, ((4-((E)-3-(((S)-6-amino-1-oxo-1-((S)-2-(1,2,3,4-tetrahydroisoquinoline-2-carbonyl)pyrrolidin-1-yl)hexan-2-yl)amino)-3-oxoprop-1-en-1-yl)phenyl)difluoromethyl)phosphonic acid]	> 10 µM	> 10 µM
NCCCC[C@H](NC(=O)c1cc2cc(C(F)(F)P(=O)(O)O)ccc2[nH]1)C(=O)N1CCC[C@H]1C(=O)N1CCc2ccccc2C1 [Compound 9, ((2-(((S)-6-amino-1-oxo-1-((S)-2-(1,2,3,4-tetrahydroisoquinoline-2-carbonyl)pyrrolidin-1-yl)hexan-2-yl)carbamoyl)-1H-indol-5-yl)difluoromethyl)phosphonic acid]	> 10 µM	1 to 10 µM
CC(C)(C)[C@H](NC(=O)c1cc2cc(C(F)(F)P(=O)(O)O)ccc2[nH]1)C(=O)N1CCC[C@H]1C(=O)N[C@@H]1CCCc2ccccc21 [Compound 10, ((2-(((S)-3,3-dimethyl-1-oxo-1-((S)-2-(((R)-1,2,3,4-tetrahydronaphthalen-1-yl)carbamoyl)pyrrolidin-1-yl)butan-2-yl)carbamoyl)-1H-indol-5-yl)difluoromethyl)phosphonic acid]	> 10 µM	1 to 10 µM
CC(C)(C)[C@H](NC(=O)c1cc2cc(C(F)(F)P(=O)(O)O)ccc2[nH]1)C(=O)N1CCC[C@H]1C(=O)N[C@H]1CCCc2ccccc21 [Compound 11, ((2-(((S)-3,3-dimethyl-1-oxo-1-((S)-2-(((S)-1,2,3,4-tetrahydronaphthalen-1-yl)carbamoyl)pyrrolidin-1-yl)butan-2-yl)carbamoyl)-1H-indol-5-yl)difluoromethyl)phosphonic acid]	> 10 µM	1 to 10 µM
CC(C)(C)[C@H](NC(=O)c1cc2cc(C(F)(F)P(=O)(O)O)ccc2[nH]1)C(=O)N1CCC[C@H]1C(=O)NC1CCc2ccccc21 (stereo partly drawn) [Compound 12, ((2-(((2S)-1-((2S)-2-((2,3-dihydro-1H-inden-1-yl)carbamoyl)pyrrolidin-1-yl)-3,3-dimethyl-1-oxobutan-2-yl)carbamoyl)-1H-indol-5-yl)difluoromethyl)phosphonic acid]	> 10 µM	1 to 10 µM
CC(C)(C)[C@H](NC(=O)c1cc2cc(C(F)(F)P(=O)(O)O)ccc2[nH]1)C(=O)N1CCC[C@H]1C(=O)N1CCN(c2ccccc2)CC1 [Compound 13, ((2-(((S)-3,3-dimethyl-1-oxo-1-((S)-2-(4-phenylpiperazine-1-carbonyl)pyrrolidin-1-yl)butan-2-yl)carbamoyl)-1H-indol-5-yl)difluoromethyl)phosphonic acid]	> 10 µM	1 to 10 µM
CC(C)(C)[C@H](NC(=O)c1cc2cc(C(F)(F)P(=O)(O)O)ccc2[nH]1)C(=O)N1CCC[C@H]1C(=O)NC(c1ccccc1)c1ccccc1 [Compound 14, ((2-(((S)-1-((S)-2-(benzhydrylcarbamoyl)pyrrolidin-1-yl)-3,3-dimethyl-1-oxobutan-2-yl)carbamoyl)-1H-indol-5-yl)difluoromethyl)phosphonic acid]	> 10 µM	1 to 10 µM
CC(C)(C)[C@H](NC(=O)c1cc2cc(C(F)(F)P(=O)(O)O)ccc2[nH]1)C(=O)N1CCC[C@H]1C(=O)Nc1ccc2ccccc2c1 [Compound 15, ((2-(((S)-3,3-dimethyl-1-((S)-2-(naphthalen-2-ylcarbamoyl)pyrrolidin-1-yl)-1-oxobutan-2-yl)carbamoyl)-1H-indol-5-yl)difluoromethyl)phosphonic acid]	1 to 10 µM	1 to 10 µM
CC(C)(C)[C@H](NC(=O)c1cc2cc(C(F)(F)P(=O)(O)O)ccc2[nH]1)C(=O)N1CCC[C@H]1C(=O)N[C@@H]1C[C@H]1c1ccccc1 [Compound 16, ((2-(((S)-3,3-dimethyl-1-oxo-1-((S)-2-(((1R,2S)-2-phenylcyclopropyl)carbamoyl)pyrrolidin-1-yl)butan-2-yl)carbamoyl)-1H-indol-5-yl)difluoromethyl)phosphonic acid]	> 10 µM	1 to 10 µM
CC(C)(C)[C@H](NC(=O)c1cc2cc(C(F)(F)P(=O)(O)O)ccc2[nH]1)C(=O)N1CCC[C@H]1c1nc(Cc2ccccc2)cs1 [Compound 17, ((2-(((S)-1-((S)-2-(4-benzylthiazol-2-yl)pyrrolidin-1-yl)-3,3-dimethyl-1-oxobutan-2-yl)carbamoyl)-1H-indol-5-yl)difluoromethyl)phosphonic acid]	1 to 10 µM	1 to 10 µM
